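1) Cells in 96-well plates. 2) Compound, 48 h, 5 concentrations. 3) Linear interpolation between surrounding doses. 4) Unreached endpoint = highest concentration. GI50 = concentration required for 50% inhibition of growth.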 Activity calls are given as the source filed them. No stated cut-off is given here; in the data, active = GI50 up to about 1.1 µM and inactive = higher.
Key:
Assay in all cases: DTP human tumour cell line panel, 48 h
[1] = system: UO-31
[2] = system: SNB-75
[3] = system: IGROV-1
[4] = system: HOP-62
[5] = system: SK-OV-3
[6] = system: ACHN
[7] = system: DU-145
[8] = system: SK-MEL-28
[9] = system: OVCAR-4
[10] = system: U-251
[11] = system: HT-29
[12] = system: A549
[13] = system: PC-3
[14] = system: A498
[15] = system: MOLT-4
[16] = system: OVCAR-3
[17] = system: HCT-116
[18] = system: COLO 205
[19] = system: UACC-257
[20] = system: SK-MEL-2

Compound	GI50 [1]	GI50 [2]	GI50 [3]	GI50 [4]	GI50 [5]	GI50 [6]	GI50 [7]	GI50 [8]	GI50 [9]	GI50 [10]	GI50 [11]	GI50 [12]	GI50 [13]	GI50 [14]	GI50 [15]	GI50 [16]	GI50 [17]	GI50 [18]	GI50 [19]	GI50 [20]
Cc1ccc(S(=O)(=O)NN=C2C(C)(C)CC2(C)C)cc1	> 100 µM (inactive)	17.3 µM (inactive)	> 100 µM (inactive)	> 100 µM (inactive)	> 100 µM (inactive)	> 100 µM (inactive)	> 100 µM (inactive)	> 100 µM (inactive)	> 100 µM (inactive)	> 100 µM (inactive)	> 100 µM (inactive)	> 100 µM (inactive)	> 100 µM (inactive)	> 100 µM (inactive)	> 100 µM (inactive)	> 100 µM (inactive)	> 100 µM (inactive)	> 100 µM (inactive)	> 100 µM (inactive)	> 100 µM (inactive)
C=CCn1c(=O)ccn(/C(=C/C(=O)OCC)C(=O)OCC)c1=O	14.9 µM (inactive)	16.1 µM (inactive)	15.3 µM (inactive)	20.9 µM (inactive)	25.7 µM (inactive)	3.72 µM (inactive)	21.7 µM (inactive)	15.2 µM (inactive)	12.4 µM (inactive)	14.4 µM (inactive)	10.4 µM (inactive)	17.5 µM (inactive)	14.6 µM (inactive)	17.9 µM (inactive)	2.99 µM (inactive)	5.66 µM (inactive)	7.1 µM (inactive)	1.74 µM (inactive)	15.2 µM (inactive)	15.7 µM (inactive)
BrC(Br)=C1C(=C(Br)Br)C(Br)C1Br (stereo not given)	0.701 µM (active)	1.69 µM (inactive)	0.628 µM (active)	1.02 µM (active)	3.33 µM (inactive)	0.152 µM (active)	0.106 µM (active)	1.1 µM (active)	2.51 µM (inactive)	0.65 µM (active)	0.362 µM (active)	0.796 µM (active)	1.62 µM (inactive)	1.06 µM (active)	0.121 µM (active)	0.794 µM (active)	0.302 µM (active)	0.849 µM (active)	1.75 µM (inactive)	0.789 µM (active)
CC(=O)NNc1nc(C)c(C(/C=C/c2ccc([N+](=O)[O-])cc2)=N/NC(N)=S)s1	> 100 µM (inactive)	> 100 µM (inactive)	> 100 µM (inactive)	> 100 µM (inactive)	> 100 µM (inactive)	> 100 µM (inactive)	> 100 µM (inactive)	> 100 µM (inactive)	> 100 µM (inactive)	> 100 µM (inactive)	> 100 µM (inactive)	> 100 µM (inactive)	> 100 µM (inactive)	> 100 µM (inactive)	> 100 µM (inactive)	> 100 µM (inactive)	> 100 µM (inactive)	> 100 µM (inactive)	> 100 µM (inactive)	> 100 µM (inactive)
Cc1cccc(/C=N/NC(=S)NC2CCCCC2)n1	18.7 µM (inactive)	45.3 µM (inactive)	21.3 µM (inactive)	20.9 µM (inactive)	23.1 µM (inactive)	25.8 µM (inactive)	29.6 µM (inactive)	46.7 µM (inactive)	17.3 µM (inactive)	20.5 µM (inactive)	3.27 µM (inactive)	28.9 µM (inactive)	6.73 µM (inactive)	28.1 µM (inactive)	2.26 µM (inactive)	3.7 µM (inactive)	4.02 µM (inactive)	8.85 µM (inactive)	17.3 µM (inactive)	24.1 µM (inactive)
O=C1CC2(CCNCC2)C(=O)N1N1CCOCC1	> 100 µM (inactive)	> 100 µM (inactive)	> 100 µM (inactive)	> 100 µM (inactive)	> 100 µM (inactive)	> 100 µM (inactive)	> 100 µM (inactive)	> 100 µM (inactive)	> 100 µM (inactive)	> 100 µM (inactive)	> 100 µM (inactive)	> 100 µM (inactive)	> 100 µM (inactive)	> 100 µM (inactive)	> 100 µM (inactive)	> 100 µM (inactive)	> 100 µM (inactive)	> 100 µM (inactive)	> 100 µM (inactive)	> 100 µM (inactive)
CC1(C)CC[C@]2(C(=O)O)CC[C@]3(C)[C@H](C(=O)C=C4[C@@]5(C)C=C(C#N)C(=O)C(C)(C)[C@@H]5CC[C@]43C)[C@@H]2C1 [BARDOXOLONE]	1.06 µM (active)	0.45 µM (active)	0.762 µM (active)	0.665 µM (active)	0.875 µM (active)	0.543 µM (active)	0.508 µM (active)	0.16 µM (active)	1.03 µM (active)	0.274 µM (active)	0.495 µM (active)	1.16 µM (inactive)	0.311 µM (active)	0.391 µM (active)	0.259 µM (active)	0.102 µM (active)	0.294 µM (active)	0.215 µM (active)	1.14 µM (inactive)	1 µM (active)
CC(C)(C)c1ccc(O)c(CN(Cc2c(O)ccc3ccccc23)C2CCCCC2)c1	14.7 µM (inactive)	16 µM (inactive)	15.7 µM (inactive)	17.6 µM (inactive)	24.9 µM (inactive)	18.5 µM (inactive)	23.8 µM (inactive)	20.5 µM (inactive)	20.7 µM (inactive)	16 µM (inactive)	16 µM (inactive)	18.5 µM (inactive)	14.5 µM (inactive)	19.5 µM (inactive)	18.6 µM (inactive)	17.4 µM (inactive)	16.9 µM (inactive)	15.7 µM (inactive)	15.7 µM (inactive)	16.7 µM (inactive)
N#CC1CCCC2SC(F)(F)C(F)(F)C12 (stereo not given)	> 100 µM (inactive)	> 88.3 µM (inactive)	> 100 µM (inactive)	> 100 µM (inactive)	> 100 µM (inactive)	> 100 µM (inactive)	> 100 µM (inactive)	> 100 µM (inactive)	> 100 µM (inactive)	> 100 µM (inactive)	> 88.5 µM (inactive)	> 100 µM (inactive)	> 100 µM (inactive)	> 100 µM (inactive)	26.6 µM (inactive)	> 100 µM (inactive)	> 100 µM (inactive)	> 100 µM (inactive)	> 100 µM (inactive)	> 100 µM (inactive)
Cc1ccc(S(=O)(=O)CC2CCCn3c2c(C#N)c2ccccc23)cc1 (stereo not given)	> 100 µM (inactive)	> 100 µM (inactive)	> 100 µM (inactive)	> 100 µM (inactive)	> 100 µM (inactive)	> 100 µM (inactive)	> 100 µM (inactive)	> 100 µM (inactive)	> 100 µM (inactive)	> 100 µM (inactive)	> 100 µM (inactive)	> 100 µM (inactive)	54.2 µM (inactive)	> 100 µM (inactive)	> 100 µM (inactive)	> 100 µM (inactive)	> 100 µM (inactive)	> 100 µM (inactive)	> 100 µM (inactive)	> 100 µM (inactive)
Cc1cc(Cl)ccc1Nc1sc(C(=O)c2cc3cc(Cl)ccc3o2)c(N)c1C#N	34.1 µM (inactive)	3.48 µM (inactive)	16.3 µM (inactive)	4.86 µM (inactive)	14.7 µM (inactive)	15.4 µM (inactive)	18.8 µM (inactive)	> 28.1 µM (inactive)	3.59 µM (inactive)	4.14 µM (inactive)	8.67 µM (inactive)	5.98 µM (inactive)	6.08 µM (inactive)	5.6 µM (inactive)	> 53.3 µM (inactive)	12.5 µM (inactive)	18.4 µM (inactive)	> 69.8 µM (inactive)	> 61.7 µM (inactive)	> 44.9 µM (inactive)
COC(=O)c1ccccc1C1CN=NC12Cc1ccc(C)cc1C2=O (stereo not given)	34.7 µM (inactive)	90.6 µM (inactive)	63.8 µM (inactive)	> 100 µM (inactive)	> 100 µM (inactive)	> 100 µM (inactive)	> 100 µM (inactive)	67.8 µM (inactive)	32.8 µM (inactive)	41.6 µM (inactive)	42.6 µM (inactive)	47.6 µM (inactive)	37.1 µM (inactive)	> 100 µM (inactive)	47.2 µM (inactive)	38.6 µM (inactive)	38.6 µM (inactive)	60.8 µM (inactive)	93.1 µM (inactive)	28.5 µM (inactive)
C=C1CC2CC[C@@]34C[C@H]5O[C@@H]6C(O[C@H]7CC[C@H](CC(=O)OC8[C@H](C)C9OC%10C[C@]%11(C[C@@H]%12O[C@]%13(C[C@H](C)[C@@H]%14O[C@H]([C@H](O)C[C@H](O)CO)C[C@@H]%14O%13)C[C@H](C)[C@@H]%12O%11)OC%10CC9O[C@H]8C[C@H]8O[C@H](CC[C@@H]1O2)C[C@@H](C)C8=C)O[C@H]7[C@@H]6O3)[C@@H]5O4 (stereo not given in full)	0.00539 µM (active)	0.000321 µM (active)	0.00218 µM (active)	0.00131 µM (active)	0.00221 µM (active)	0.00411 µM (active)	0.000113 µM (active)	0.00219 µM (active)	0.00505 µM (active)	0.000899 µM (active)	0.000372 µM (active)	0.00147 µM (active)	0.000106 µM (active)	0.00108 µM (active)	0.000752 µM (active)	0.000303 µM (active)	0.000513 µM (active)	0.000492 µM (active)	0.0008 µM (active)	0.00149 µM (active)
